The IC50 is the midpoint of a concentration-inhibition curve. As a reminder, the EC50 is the concentration at which the effect is half-maximal. As usually defined, the Kd is the free concentration of one partner at which half of the binding sites on the other are occupied at equilibrium, for simple one-to-one binding.

The target in assay [1] is T1, WDR5 (Homo sapiens, UniProt P61964). As to the kind of experiment: Fluorescence Polarization (FP) binding assay. On the procedure: H3 (1-15) ([…]), and 9-Ala-FAM ((Ac)-[…]-(Ahx-Ahx)-K(5,6-FAM)) (where Ahx represents 6 amino hexanoic acid linkers) peptides for WDR5 were synthesized, N-terminal-labeled with isothiocyanate-fluorescein, and purified by Tufts University Core Services (Boston, Mass.). Compound binding assays were performed at a constant labeled peptide concentration of 30 or 20 nM for H3 (1-15) and 9-Ala-FAM respectively. WDR5 concentrations of 0.3 μM for H3 (1-15) and 0.05 μM for 9-Ala-FAM were used. For both the H3 (1-15) and 9-Ala-FAM peptides, 80 mM sodium phosphate buffer (pH 6.5), 20 mM KCl, and 0.008% Triton X-100 was used. For the H3 (1-15) peptide, FP assays were measured in 10 μl aliquots in 384-well Axygen plates using a Synergy 4 microplate reader (BioTek) with an excitation wavelength of 485 nm and emission wavelength of 528 nm. For the 9-Ala-FAM peptide, FP assays were measured in 125 μl aliquots in 96 well Microfluor plates using a ViewLux instrument (Perkin Elmer) with an excitation wavelength of 480 nm and emission wavelength of 540 nm. To determine Kdsp values, the data were fit to a hyperbolic function using Sigma Plot software (Systat Software). The Kdisp values represent the average of quadruplicate measurements.
In general terms: In fluorescence polarisation assays a small probe gives low polarisation when free and higher when bound to something large.

Assay [2] deals with MV4-11 cells. As to the kind of experiment: Cell proliferation assay (ATPlite). It counts as cell-based. Particulars: Homo sapiens, 120 h; MV4-11 cells, five days; read-out: GI MV411 EC50. On the procedure:
MV4-11 cells were seeded into a 96-well plate at 1,000 cells/well in 150 μl medium (Alpha-MEM containing 10% FBS, 100 μg/ml Normocin, and 50 μg/ml Gentamycin, Invitrogen). A HP D300 digital dispenser was used to dose cells with DMSO or test compounds across a 10-point range of concentrations (high dose of 10 μM), and cultures were grown in a humidified 5% CO2 incubator at 37° C. After five days, plates were removed from incubator and equilibrated to room temperature. An equal volume of ATPlite assay reagent was added to each well, and samples were processed according to manufacturer's instructions (Perkin Elmer). Luminescent signal was measured using an Envision plate reader equipped with a US-Luminescence detector.
A general note: In ATP-based viability assays light output follows the ATP content of the culture.

Assay [3] concerns the target T1, WDR5. Put plainly: Surface Plasmon Resonance (SPR) assay. It counts as binding. On the set-up: Full length WDR5 with an N-terminal His tag and C-terminal AviTag; His tag (N); made in house; host or cells: E. coli. Particulars: read-out: SPR Kd. On the procedure:
Exemplary compounds of the application were dissolved in 100% DMSO at 10 mM, assayed fresh, and then stored at −20° C. for repeat studies and other experiments. Full length WDR5 with an N-terminal His tag and C-terminal AviTag (Avidity Inc.) was expressed in E. coli with coexpression of BirA to biotin label the protein in vivo. Purification was via Ni-NTA.
SPR studies were performed using a Biacore™ T200 instrument (GE Health Sciences Inc.). Biotinylated WDR5 protein (approximately 3000RU) was stably captured to streptavidin coupled SA chips according to the manufacture's protocol (GE Health Sciences Inc.). The running buffer used was HBS-EP (20 mM Hepes pH 7.4, 150 mM NaCl, 3 mM EDTA, 0.05% P-20) plus 5% DMSO with a flow rate of 40 μl/min. For SPR analysis, 5 different concentrations of each exemplary compound of the application were sprayed into 96 or 384 well plates using an HP D300 digital dispenser. The concentration ranged from about 195 nM to about 12 nM in a two-fold series. […] Curve fitting and KD calculations were performed with the Biacore T200 Evalutation software (GE Health Sciences Inc).

Regarding `C[C@@H]1CN(c2ncc(-c3c(F)cc(N4CCN(C)[C@@H](C)C4)c(NC(=O)c4ccc(F)cc4C(F)(F)F)c3F)cn2)C[C@H](C)O1` [Example 66, N-(3-(2-((2S,6R)-2,6-dimethylmorpholino)pyrimidin-5-yl)-6-((S)-3,4-dimethylpiperazin-1-yl)-2,4-difluorophenyl)-4-fluoro-2-(trifluoromethyl)benzamide Formic Acid], in assay [1], the half-maximal inhibitory concentration (IC50) came to 14.1 nM. For the same compound, the concentration giving a half-maximal response (EC50) in assay [2] worked out at 45.8 nM. Moreover, in assay [3], the Kd stood at 2.02 nM.
For `C[C@@H]1CN(c2ccc(-c3c(F)cc(N4CCN(C)[C@@H](C)C4)c(NC(=O)c4ccc(F)cc4C(F)F)c3F)cn2)C[C@H](C)O1` [Example 178, 2-(Difluoromethyl)-N-(3-(6-((2S,6R)-2,6-dimethylmorpholino)pyridin-3-yl)-6-((S)-3,4-dimethylpiperazin-1-yl)-2,4-difluorophenyl)-4-fluorobenzamide], in that order: 19.7 nM, 189 nM and 1.42 nM.
For `C[C@@H]1CN(c2cc(F)c(-c3cnc(N4C[C@H](C)O[C@@H](C)C4)nc3)c(F)c2NC(=O)c2c[nH]c(=O)cc2C(F)(F)F)C[C@H](C)N1C` [Example 88, N-(3-(2-((2S,6S)-2,6-dimethylmorpholino)pyrimidin-5-yl)-2,4-difluoro-6-((3S,5R)-3,4,5-trimethylpiperazin-1-yl)phenyl)-6-oxo-4-(trifluoromethyl)-1,6-dihydropyridine-3-carboxamide], in that order: 13.8 nM, 9.55 nM and 2.49 nM.
For `C[C@H]1CN(c2cc(F)c(-c3ccc4c(c3)OCCO4)c(F)c2NC(=O)c2c[nH]c(=O)cc2C(F)(F)F)CCN1C` [Example 185, (S)—N-(3-(2,3-dihydrobenzo[b][1,4]dioxin-6-yl)-6-(3,4-dimethylpiperazin-1-yl)-2,4-difluorophenyl)-6-oxo-4-(trifluoromethyl)-1,6-dihydropyridine-3-carboxamide], in that order: 26.5 nM, 170 nM and 1.29 nM.
As to `C[C@@H]1CN(c2nccc(-c3c(F)cc(N4CCN(C)[C@@H](C)C4)c(NC(=O)c4cn(C)c(=O)cc4C(F)(F)F)c3F)n2)C[C@H](C)O1` [Example 56, N-(3-(2-((2S,6R)-2,6-dimethylmorpholino)pyrimidin-4-yl)-6-((S)-3,4-dimethylpiperazin-1-yl)-2,4-difluorophenyl)-1-methyl-6-oxo-4-(trifluoromethyl)-1,6-dihydropyridine-3-carboxamide], in assay [1], the IC50 amounted to 36.7 nM. In addition, the EC50 in assay [2] stood at 1320 nM. Besides, the dissociation constant Kd in assay [3] stood at 9.79 nM.
For `C[C@@H]1CN(c2ncc(-c3c(F)cc(N4CCN(C)[C@@H](C)C4)c(NC(=O)c4c[nH]c(=O)cc4C(F)(F)F)c3F)cn2)C[C@@H](C)O1` [Example 85, N-(3-(2-((2R,6R)-2,6-dimethylmorpholino)pyrimidin-5-yl)-6-((S)-3,4-dimethylpiperazin-1-yl)-2,4-difluorophenyl)-6-oxo-4-(trifluoromethyl)-1,6-dihydropyridine-3-carboxamide], in that order: 13.8 nM, 10.3 nM and 1.24 nM.
On the same counts, the results for `C[C@@H]1CN(c2cc(F)c(-c3ccc(N4CCO[C@@H](C)C4)nc3)c(F)c2NC(=O)c2c[nH]c(=O)cc2C(F)(F)F)C[C@H](C)N1C` [Example 192, N-(2,4-difluoro-3-(6-((S)-2-methylmorpholino)pyridin-3-yl)-6-((3S,5R)-3,4,5-trimethylpiperazin-1-yl)phenyl)-6-oxo-4-(trifluoromethyl)-1,6-dihydropyridine-3-carboxamide] are 16.4 nM, 70.1 nM and 0.97 nM.
For `C[C@@H]1CN(c2cc(F)c(C3=CCN(C(=O)OC4(C)CCC4)CC3)c(F)c2NC(=O)c2c[nH]c(=O)cc2C(F)(F)F)C[C@H](C)N1C` [Example 144, 1-Methylcyclobutyl 4-(2,6-difluoro-3-(6-oxo-4-(trifluoromethyl)-1,6-dihydropyridine-3-carboxamido)-4-((3S,5R)-3,4,5-trimethylpiperazin-1-yl)phenyl)-5,6-dihydropyridine-1(2H)-carboxylate], in that order: 12.7 nM, 11.4 nM and 1.53 nM.
Consider `C[C@H]1CN(c2cc(F)c(C3=CCCN(C(=O)OC4CC(F)(F)C4)C3)c(F)c2NC(=O)c2c[nH]c(=O)cc2C(F)F)CCN1C` [Example 43, 3,3-Difluorocyclobutyl (S)-5-(3-(4-(difluoromethyl)-6-oxo-1,6-dihydropyridine-3-carboxamido)-4-(3,4-dimethylpiperazin-1-yl)-2,6-difluorophenyl)-3,6-dihydropyridine-1(2H)-carboxylate], for which, in assay [1], the IC50 amounted to 15.9 nM. Further, the concentration giving a half-maximal response (EC50) in assay [2] turned out to be 653 nM. Also, the dissociation constant (Kd) in assay [3] was 1.7 nM.
Take `C[C@@H]1CN(c2cc(F)c(C3=CCN(c4ncc(C#N)s4)C3)c(F)c2NC(=O)c2c[nH]c(=O)cc2C(F)(F)F)C[C@H](C)N1C` [Example 150, N-(3-(1-(5-cyanothiazol-2-yl)-2,5-dihydro-1H-pyrrol-3-yl)-2,4-difluoro-6-((3S,5R)-3,4,5-trimethylpiperazin-1-yl)phenyl)-6-oxo-4-(trifluoromethyl)-1,6-dihydropyridine-3-carboxamide]: in assay [1], the half-inhibitory concentration (IC50) was 12.9 nM. In assay [2], the concentration giving a half-maximal response (EC50) stood at 48.4 nM. For the same compound, the Kd in assay [3] turned out to be 0.53 nM.
With `C[C@@H]1CN(c2cc(F)c(-c3cc(C(N)=O)c(F)cc3F)c(F)c2NC(=O)c2c[nH]c(=O)cc2C(F)(F)F)C[C@H](C)N1C` [Example 30, N-(5′-carbamoyl-2,2′,4′,6-tetrafluoro-4-((3S,5R)-3,4,5-trimethylpiperazin-1-yl)-[1,1′-biphenyl]-3-yl)-6-oxo-4-(trifluoromethyl)-1,6-dihydropyridine-3-carboxamide], the IC50 in assay [1] was 85.9 nM. In addition, the EC50 in assay [2] is 18500 nM. Moreover, the dissociation constant (Kd) in assay [3] was 23.6 nM.
For `COc1cc(N2CC=C(c3c(F)cc(N4C[C@@H](C)N(C)[C@@H](C)C4)c(NC(=O)c4c[nH]c(=O)cc4C(F)(F)F)c3F)C2)ncn1` [Example 143, N-(2,4-difluoro-3-(1-(6-methoxypyrimidin-4-yl)-2,5-dihydro-1H-pyrrol-3-yl)-6-((3S,5R)-3,4,5-trimethylpiperazin-1-yl)phenyl)-6-oxo-4-(trifluoromethyl)-1,6-dihydropyridine-3-carboxamide], in that order: 14.4 nM, 17.7 nM and 0.92 nM.
For `C[C@@H]1CN(c2nccc(-c3c(F)cc(N4C[C@@H](C)N(C)[C@@H](C)C4)c(NC(=O)c4c[nH]c(=O)cc4C(F)F)c3F)n2)C[C@H](C)O1` [Example 78, 4-(Difluoromethyl)-N-(3-(2-((2S,6R)-2,6-dimethylmorpholino)pyrimidin-4-yl)-2,4-difluoro-6-((3S,5R)-3,4,5-trimethylpiperazin-1-yl)phenyl)-6-oxo-1,6-dihydropyridine-3-carboxamide], in that order: 14.7 nM, 64.1 nM and 1.16 nM.
On the same counts, the results for `C[C@@H]1CN(c2cc(F)c(-c3cnc(N4CCOCC4)nc3)c(F)c2NC(=O)c2c[nH]c(=O)cc2C(F)F)C[C@H](C)N1C` [Example 41, N-(2,4-difluoro-3-(2-morpholinopyrimidin-5-yl)-6-((3S,5R)-3,4,5-trimethylpiperazin-1-yl)phenyl)-4-(difluoromethyl)-6-oxo-1,6-dihydropyridine-3-carboxamide] are 7.1 nM, 48.8 nM and 0.84 nM.

Values taken from patent US20200385371A1 (Propellon Therapeutics Inc., priority 2017, published 2020).
